Measured values as given in ChEMBL document CHEMBL5335781, “Discovery of quinazolin-4-one-based non-covalent inhibitors targeting the severe acute respiratory syndrome coronavirus 2 main protease (SARS-CoV-2 Mpro)” (Eur J Med Chem, 2023).
≈ marks a conversion by molar mass, not a printed value. Calls of active or inactive are those of the source. No cut-off for these calls is given here.

Columns and labels:
Vero C1008 = test: Cytotoxicity against african green monkey Vero E6 cells by CCK-8 assay; assay type: toxicity, cell-based; details: chlorocebus sabaeus
[1] = target: Replicase polyprotein 1ab (Severe acute respiratory syndrome coronavirus 2) (UniProt P0DTD1); details: time 30.0 min
[2] = Plasma protein binding in human assessed as unbound fraction; assay type: ADME, cell-free
[3] = Metabolic stability in human liver microsomes assessed as intrinsic clearance; assay type: ADME, Microsome
[4] = Metabolic stability in human liver microsomes assessed as half life; assay type: ADME, Microsome
[5] = Kinetic solubility in phosphate buffer solution at pH 7.4; assay type: physicochemical; details: read-out: Kinetic_solubility
Cathepsin B = Cathepsin B (Homo sapiens, UniProt P07858); test: Inhibition of human Cathepsin B using fluorogenic substrate by FRET-based assay
Prothrombin = Prothrombin (Homo sapiens, UniProt P00734); test: Inhibition of human Thrombin using fluorogenic substrate by FRET-based assay
Procathepsin L = Procathepsin L (Homo sapiens, UniProt P07711); test: Inhibition of human Cathepsin L using fluorogenic substrate by FRET-based assay
Procathepsin L, sequence (P07711 whole entry): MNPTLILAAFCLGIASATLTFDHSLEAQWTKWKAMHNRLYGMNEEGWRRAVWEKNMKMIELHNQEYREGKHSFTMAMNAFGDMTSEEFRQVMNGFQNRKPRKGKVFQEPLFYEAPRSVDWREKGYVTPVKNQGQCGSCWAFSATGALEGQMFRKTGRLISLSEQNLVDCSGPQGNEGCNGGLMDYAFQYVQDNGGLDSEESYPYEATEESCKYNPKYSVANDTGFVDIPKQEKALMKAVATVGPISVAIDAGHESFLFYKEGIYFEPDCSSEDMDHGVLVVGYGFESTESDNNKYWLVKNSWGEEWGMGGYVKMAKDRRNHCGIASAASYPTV

Caspase-2 = target: T1, Caspase-2 (Homo sapiens, UniProt P42575); test: Inhibition of human Caspase 2 using fluorogenic substrate by FRET-based assay
T1 sequence (P42575 whole entry): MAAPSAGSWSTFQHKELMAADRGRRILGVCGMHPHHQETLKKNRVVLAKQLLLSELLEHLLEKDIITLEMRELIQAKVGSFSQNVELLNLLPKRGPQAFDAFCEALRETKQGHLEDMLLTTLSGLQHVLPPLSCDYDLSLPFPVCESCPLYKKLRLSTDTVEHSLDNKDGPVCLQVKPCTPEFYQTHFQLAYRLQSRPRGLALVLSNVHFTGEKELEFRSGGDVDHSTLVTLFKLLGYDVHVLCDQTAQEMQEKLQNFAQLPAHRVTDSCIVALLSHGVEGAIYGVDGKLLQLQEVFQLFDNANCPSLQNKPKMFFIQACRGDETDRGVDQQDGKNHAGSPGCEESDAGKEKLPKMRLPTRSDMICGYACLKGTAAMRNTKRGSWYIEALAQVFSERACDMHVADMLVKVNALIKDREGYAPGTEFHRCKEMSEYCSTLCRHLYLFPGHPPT

Cathepsin D = Cathepsin D (Homo sapiens, UniProt P07339); test: Inhibition of human Cathepsin D using fluorogenic substrate by FRET-based assay
Cathepsin D, sequence (P07339 65-162 limits assumed): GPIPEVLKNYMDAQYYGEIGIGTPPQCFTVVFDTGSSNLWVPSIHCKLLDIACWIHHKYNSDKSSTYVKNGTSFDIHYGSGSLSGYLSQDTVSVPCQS
Cathepsin D, sequence (P07339 169-412 limits assumed): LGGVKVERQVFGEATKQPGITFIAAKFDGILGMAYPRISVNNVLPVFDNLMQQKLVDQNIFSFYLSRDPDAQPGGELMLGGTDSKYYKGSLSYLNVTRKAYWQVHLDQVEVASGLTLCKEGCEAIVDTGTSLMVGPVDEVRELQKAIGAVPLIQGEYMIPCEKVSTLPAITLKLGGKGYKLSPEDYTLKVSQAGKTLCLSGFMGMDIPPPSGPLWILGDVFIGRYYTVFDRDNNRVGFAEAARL

Row | Structure (SMILES) | CC50 (Vero C1008) [µM] | inhibition [1] | Fu [2] [%] | CLH [3] [µL/min/mg] | t1/2 [4] [min] | solubility kinetic [5] [µM] | IC50 (Cathepsin B) [µM] | IC50 (Prothrombin) [µM] | IC50 (Procathepsin L) [µM] | IC50 (Caspase-2) [µM] | IC50 (Cathepsin D) [µM]
1 | Cc1cc(-n2c(CC(C)C)nc3cc(O)c(O)c(O)c3c2=O)ccc1F | > 50 | Active | 3.17 |  |  |  |  |  |  |  | 
2 | CC(C)Cc1nc2cc(O)c(O)c(O)c2c(=O)n1-c1ccccc1 | > 50 | Active | 2.61 | 68.34 | 20.28 | 156 (≈ 50.9 µg/mL) |  |  |  |  | 
3 | O=c1c2c(O)c(O)c(O)cc2nc(-c2ccccc2)n1-c1ccccc1 | > 50 | Active | 0.7 | 108.68 | 12.75 | 179 (≈ 62.1 µg/mL) | > 10 | > 10 | > 10 | > 10 | > 10
4 | O=c1cc(-c2ccccc2)oc2cc(O)c(O)c(O)c12 [BAICALEIN] | > 50 |  | 0.93 | 333.05 | 4.16 | 112 (≈ 30.3 µg/mL) |  |  |  |  | 
5 | O=c1c2c(O)c(O)c(O)cc2nc(-c2ccccc2)n1C1CCCC1 |  | Active |  |  |  |  |  |  |  |  | 
6 | O=c1c2c(O)c(O)c(O)cc2nc(Cc2ccccc2)n1-c1ccccc1 |  | Active |  |  |  |  |  |  |  |  | 
